Laboratory results: US9156845B2, “4-(substituted amino)-7H-pyrrolo[2,3-d] pyrimidines as LRRK2 inhibitors” (Pfizer Inc., priority 2012, dated 2015)
Where two headings read alike, the source gives them in different places.

Columns and labels:
[1] = biological target: mutant G2019S LRRK2 (Homo sapiens (Human), UniProt Q5S007, G2019S); test: LRRK2 Lantha Screen kinase assay, mutant enzyme; type: biochemical; conditions: geometric mean of 2-5 determinations unless otherwise indicated (a: >=6 determinations; b: single determination)
[2] = biological target: ACK (Homo sapiens (Human), UniProt Q07912); test: ActivX kinase probe assay (human PBMC); type: binding; conditions: read-out: percent inhibition
[3] = biological target: AMPKa1 (Homo sapiens (Human), UniProt Q13131); test: ActivX kinase probe assay (human PBMC); type: binding; conditions: read-out: percent inhibition
[4] = biological target: BRAF (Homo sapiens (Human), UniProt P15056); test: ActivX kinase probe assay (human PBMC); type: binding; conditions: read-out: percent inhibition
[5] = biological target: CaMK1d (Homo sapiens (Human), UniProt Q8IU85); test: ActivX kinase probe assay (human PBMC); type: binding; conditions: read-out: percent inhibition
[6] = biological target: CaMK2g (Homo sapiens (Human), UniProt Q13555); test: ActivX kinase probe assay (human PBMC); type: binding; conditions: read-out: percent inhibition
[7] = test system: CDK11, CDK8; test: ActivX kinase probe assay (human PBMC); type: binding
[8] = biological target: CDK2 (Homo sapiens (Human), UniProt P24941); test: ActivX kinase probe assay (human PBMC); type: binding; conditions: read-out: percent inhibition
[9] = biological target: FES (Homo sapiens (Human), UniProt P07332); test: ActivX kinase probe assay (human PBMC); type: binding; conditions: read-out: percent inhibition
[10] = biological target: GCK (Homo sapiens (Human), UniProt Q12851); test: ActivX kinase probe assay (human PBMC); type: binding; conditions: read-out: percent inhibition
[11] = biological target: GCN2 (Homo sapiens (Human), UniProt Q9P2K8); test: ActivX kinase probe assay (human PBMC); type: binding; conditions: read-out: percent inhibition
[12] = biological target: GSK3A (Homo sapiens (Human), UniProt P49840); test: ActivX kinase probe assay (human PBMC); type: binding; conditions: read-out: percent inhibition
[13] = biological target: GSK3B (Homo sapiens (Human), UniProt P49841); test: ActivX kinase probe assay (human PBMC); type: binding; conditions: read-out: percent inhibition
[14] = biological target: ILK (Homo sapiens (Human), UniProt Q13418); test: ActivX kinase probe assay (human PBMC); type: binding; conditions: read-out: percent inhibition
[15] = biological target: IRAK3 (Homo sapiens (Human), UniProt Q9Y616); test: ActivX kinase probe assay (human PBMC); type: binding; conditions: read-out: percent inhibition
[16] = biological target: JAK2 domain2 (Homo sapiens (Human), UniProt O60674); test: ActivX kinase probe assay (human PBMC); type: binding; conditions: read-out: percent inhibition
[17] = biological target: LOK (Homo sapiens (Human), UniProt O94804); test: ActivX kinase probe assay (human PBMC); type: binding; conditions: read-out: percent inhibition
[18] = biological target: MAP3K4 (Homo sapiens (Human), UniProt Q9Y6R4); test: ActivX kinase probe assay (human PBMC); type: binding; conditions: read-out: percent inhibition
[19] = biological target: MLKL (Homo sapiens (Human), UniProt Q8NB16); test: ActivX kinase probe assay (human PBMC); type: binding; conditions: read-out: percent inhibition
[20] = biological target: MST3 (Homo sapiens (Human), UniProt Q9Y6E0); test: ActivX kinase probe assay (human PBMC); type: binding; conditions: read-out: percent inhibition
[21] = biological target: NDR2 (Homo sapiens (Human), UniProt Q9Y2H1); test: ActivX kinase probe assay (human PBMC); type: binding; conditions: read-out: percent inhibition
[22] = biological target: NEK9 (Homo sapiens (Human), UniProt Q8TD19); test: ActivX kinase probe assay (human PBMC); type: binding; conditions: read-out: percent inhibition
[23] = biological target: PI4KB (Homo sapiens (Human), UniProt Q9UBF8); test: ActivX kinase probe assay (human PBMC); type: binding; conditions: read-out: percent inhibition
[24] = biological target: PIK3CB (Homo sapiens (Human), UniProt P42338); test: ActivX kinase probe assay (human PBMC); type: binding; conditions: read-out: percent inhibition
[25] = biological target: PIK3CG (Homo sapiens (Human), UniProt P48736); test: ActivX kinase probe assay (human PBMC); type: binding; conditions: read-out: percent inhibition
[26] = biological target: PRPK (Homo sapiens (Human), UniProt Q96S44); test: ActivX kinase probe assay (human PBMC); type: binding; conditions: read-out: percent inhibition
Description: Certain of the compounds of the present invention were assessed for kinase selectivity using a commercially available ActiveX targeted kinase probe in which the tissue employed was human peripheral blood mononuclear cells (PBMC). The test compounds were provided to ActivX Biosciences, Inc., 11025 North Torrey Pines Road, Suite 120; LaJolla, Calif., USA 92037. The compounds were run in the ActivX proprietary kinase assay and results were obtained at compound test concentrations of 1 μM (columns 2, 4 and 6) and 0.1 μM (columns 3, 5 and 7). The results as percent inhibition obtained for the compounds of Examples 1, 4 and 217 are provided below in Table 3.

[27] = biological target: PYK2 (Homo sapiens (Human), UniProt Q14289); test: ActivX kinase probe assay (human PBMC); type: binding; conditions: read-out: percent inhibition
[28] = test system: RSK1, RSK2, RSK3 domain1; test: ActivX kinase probe assay (human PBMC); type: binding
[29] = biological target: RSKL1 domain1 (Homo sapiens (Human), UniProt Q96S38); test: ActivX kinase probe assay (human PBMC); type: binding; conditions: read-out: percent inhibition
[30] = biological target: SGK3 (Homo sapiens (Human), UniProt Q96BR1); test: ActivX kinase probe assay (human PBMC); type: binding; conditions: read-out: percent inhibition
[31] = test system: TAO1, TAO3; test: ActivX kinase probe assay (human PBMC); type: binding
[32] = test system: ZC1/HGK, ZC2/TNIK, ZC3/MINK; test: ActivX kinase probe assay (human PBMC); type: binding

CaMK1d, sequence (Q8IU85 whole entry): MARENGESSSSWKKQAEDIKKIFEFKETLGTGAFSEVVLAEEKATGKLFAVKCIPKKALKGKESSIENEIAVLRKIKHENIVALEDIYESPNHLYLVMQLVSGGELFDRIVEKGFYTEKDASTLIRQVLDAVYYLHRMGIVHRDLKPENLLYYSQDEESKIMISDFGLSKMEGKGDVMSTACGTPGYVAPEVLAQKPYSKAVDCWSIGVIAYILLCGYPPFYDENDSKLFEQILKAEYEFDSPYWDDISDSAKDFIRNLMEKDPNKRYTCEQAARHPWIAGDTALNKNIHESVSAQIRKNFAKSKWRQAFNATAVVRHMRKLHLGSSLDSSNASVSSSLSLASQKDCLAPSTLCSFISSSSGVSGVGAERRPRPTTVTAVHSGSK
FES, sequence (P07332 whole entry): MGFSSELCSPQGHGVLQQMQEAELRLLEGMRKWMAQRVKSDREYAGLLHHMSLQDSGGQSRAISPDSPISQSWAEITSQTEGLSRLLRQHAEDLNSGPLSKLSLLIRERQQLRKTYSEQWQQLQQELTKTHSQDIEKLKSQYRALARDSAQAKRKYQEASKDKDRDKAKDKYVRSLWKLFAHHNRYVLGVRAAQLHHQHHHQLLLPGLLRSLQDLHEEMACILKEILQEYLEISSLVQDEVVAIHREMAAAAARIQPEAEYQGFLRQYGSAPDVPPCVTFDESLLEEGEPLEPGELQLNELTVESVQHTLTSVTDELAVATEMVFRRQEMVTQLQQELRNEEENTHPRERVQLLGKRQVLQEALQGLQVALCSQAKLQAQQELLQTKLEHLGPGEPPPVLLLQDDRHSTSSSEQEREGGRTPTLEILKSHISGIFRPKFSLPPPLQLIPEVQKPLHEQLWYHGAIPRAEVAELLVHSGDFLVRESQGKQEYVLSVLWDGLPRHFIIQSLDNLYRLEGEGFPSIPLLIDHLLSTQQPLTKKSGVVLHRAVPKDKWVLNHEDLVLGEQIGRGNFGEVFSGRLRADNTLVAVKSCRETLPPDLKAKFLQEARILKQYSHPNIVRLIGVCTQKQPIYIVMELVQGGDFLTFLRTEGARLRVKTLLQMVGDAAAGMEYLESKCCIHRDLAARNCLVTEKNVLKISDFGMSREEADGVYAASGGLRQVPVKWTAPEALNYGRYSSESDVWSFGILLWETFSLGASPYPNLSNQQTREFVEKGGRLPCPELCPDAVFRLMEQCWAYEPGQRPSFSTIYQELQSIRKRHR
GCN2, sequence (Q9P2K8 whole entry): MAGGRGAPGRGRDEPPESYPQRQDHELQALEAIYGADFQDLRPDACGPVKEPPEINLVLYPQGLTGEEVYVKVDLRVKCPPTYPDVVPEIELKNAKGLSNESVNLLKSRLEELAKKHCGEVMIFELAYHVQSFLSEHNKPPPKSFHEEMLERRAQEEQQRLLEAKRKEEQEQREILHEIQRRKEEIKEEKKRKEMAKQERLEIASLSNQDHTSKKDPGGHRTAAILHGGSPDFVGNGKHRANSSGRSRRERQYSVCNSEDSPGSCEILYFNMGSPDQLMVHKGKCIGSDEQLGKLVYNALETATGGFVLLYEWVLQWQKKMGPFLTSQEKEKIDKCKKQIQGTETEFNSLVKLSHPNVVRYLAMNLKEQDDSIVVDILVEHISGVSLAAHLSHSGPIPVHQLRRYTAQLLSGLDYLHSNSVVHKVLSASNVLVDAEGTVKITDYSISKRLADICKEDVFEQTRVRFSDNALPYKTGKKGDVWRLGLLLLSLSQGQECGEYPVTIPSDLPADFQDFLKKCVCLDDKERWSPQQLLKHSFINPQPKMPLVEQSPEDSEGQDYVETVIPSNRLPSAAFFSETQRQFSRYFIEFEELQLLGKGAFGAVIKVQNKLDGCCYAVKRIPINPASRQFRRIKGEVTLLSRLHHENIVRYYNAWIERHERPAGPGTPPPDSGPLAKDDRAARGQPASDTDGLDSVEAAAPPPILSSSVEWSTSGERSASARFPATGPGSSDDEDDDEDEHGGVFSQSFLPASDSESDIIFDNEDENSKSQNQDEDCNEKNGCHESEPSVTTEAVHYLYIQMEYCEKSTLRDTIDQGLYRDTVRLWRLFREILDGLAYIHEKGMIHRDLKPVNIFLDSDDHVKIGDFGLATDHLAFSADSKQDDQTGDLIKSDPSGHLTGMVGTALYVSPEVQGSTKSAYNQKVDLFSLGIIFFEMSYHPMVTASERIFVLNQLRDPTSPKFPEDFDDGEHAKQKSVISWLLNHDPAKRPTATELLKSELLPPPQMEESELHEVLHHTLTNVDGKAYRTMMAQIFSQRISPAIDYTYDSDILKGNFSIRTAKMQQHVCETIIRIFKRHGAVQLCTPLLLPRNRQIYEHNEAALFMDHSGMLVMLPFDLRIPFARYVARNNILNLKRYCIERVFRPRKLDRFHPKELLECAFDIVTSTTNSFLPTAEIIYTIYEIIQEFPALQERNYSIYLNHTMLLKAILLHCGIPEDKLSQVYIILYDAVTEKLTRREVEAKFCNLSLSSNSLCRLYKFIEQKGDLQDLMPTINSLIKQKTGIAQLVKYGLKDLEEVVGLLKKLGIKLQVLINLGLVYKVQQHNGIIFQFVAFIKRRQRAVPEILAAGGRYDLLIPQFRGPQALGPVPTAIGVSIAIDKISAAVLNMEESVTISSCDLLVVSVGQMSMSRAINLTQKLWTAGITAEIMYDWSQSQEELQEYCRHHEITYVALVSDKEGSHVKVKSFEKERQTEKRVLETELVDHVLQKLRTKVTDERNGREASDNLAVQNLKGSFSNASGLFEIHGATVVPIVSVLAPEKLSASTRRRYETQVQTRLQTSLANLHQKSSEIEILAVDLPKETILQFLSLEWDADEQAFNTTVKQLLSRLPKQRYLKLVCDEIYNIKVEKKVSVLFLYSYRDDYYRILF
CaMK2g, sequence (Q13555 whole entry): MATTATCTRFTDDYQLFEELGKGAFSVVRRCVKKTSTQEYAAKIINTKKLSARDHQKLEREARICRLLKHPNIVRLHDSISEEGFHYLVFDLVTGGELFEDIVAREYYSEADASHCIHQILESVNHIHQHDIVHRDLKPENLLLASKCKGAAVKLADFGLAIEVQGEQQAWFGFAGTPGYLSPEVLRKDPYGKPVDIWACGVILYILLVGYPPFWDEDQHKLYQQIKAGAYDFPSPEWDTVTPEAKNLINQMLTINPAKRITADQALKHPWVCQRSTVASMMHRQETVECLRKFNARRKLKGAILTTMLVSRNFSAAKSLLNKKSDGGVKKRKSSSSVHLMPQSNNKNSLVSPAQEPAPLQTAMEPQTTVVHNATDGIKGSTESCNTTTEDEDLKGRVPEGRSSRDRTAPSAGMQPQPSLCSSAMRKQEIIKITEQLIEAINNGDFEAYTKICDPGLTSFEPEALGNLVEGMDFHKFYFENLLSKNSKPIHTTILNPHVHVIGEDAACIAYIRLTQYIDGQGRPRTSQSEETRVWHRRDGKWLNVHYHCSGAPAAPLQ
PI4KB, sequence (Q9UBF8 whole entry): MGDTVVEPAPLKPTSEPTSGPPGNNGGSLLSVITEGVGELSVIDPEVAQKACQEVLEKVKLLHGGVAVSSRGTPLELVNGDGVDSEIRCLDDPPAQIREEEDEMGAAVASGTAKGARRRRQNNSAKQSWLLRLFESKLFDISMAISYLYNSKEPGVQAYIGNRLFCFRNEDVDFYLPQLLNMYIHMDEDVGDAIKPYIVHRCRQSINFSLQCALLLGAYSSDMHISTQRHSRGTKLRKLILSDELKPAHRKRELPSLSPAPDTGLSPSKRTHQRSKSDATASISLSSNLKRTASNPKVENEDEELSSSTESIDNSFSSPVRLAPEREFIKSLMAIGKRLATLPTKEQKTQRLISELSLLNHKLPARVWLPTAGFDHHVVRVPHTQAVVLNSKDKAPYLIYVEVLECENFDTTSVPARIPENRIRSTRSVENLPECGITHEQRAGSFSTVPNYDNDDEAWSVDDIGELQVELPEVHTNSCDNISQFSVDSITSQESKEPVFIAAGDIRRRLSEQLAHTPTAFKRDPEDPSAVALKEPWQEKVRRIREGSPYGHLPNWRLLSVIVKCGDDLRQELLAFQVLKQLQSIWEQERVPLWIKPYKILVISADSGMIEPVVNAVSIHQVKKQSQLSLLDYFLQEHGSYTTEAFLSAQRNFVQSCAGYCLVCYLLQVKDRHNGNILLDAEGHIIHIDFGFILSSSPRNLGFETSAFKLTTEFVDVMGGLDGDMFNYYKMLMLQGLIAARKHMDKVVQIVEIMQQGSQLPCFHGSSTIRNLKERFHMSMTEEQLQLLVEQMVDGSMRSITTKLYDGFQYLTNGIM
ILK, sequence (Q13418 whole entry): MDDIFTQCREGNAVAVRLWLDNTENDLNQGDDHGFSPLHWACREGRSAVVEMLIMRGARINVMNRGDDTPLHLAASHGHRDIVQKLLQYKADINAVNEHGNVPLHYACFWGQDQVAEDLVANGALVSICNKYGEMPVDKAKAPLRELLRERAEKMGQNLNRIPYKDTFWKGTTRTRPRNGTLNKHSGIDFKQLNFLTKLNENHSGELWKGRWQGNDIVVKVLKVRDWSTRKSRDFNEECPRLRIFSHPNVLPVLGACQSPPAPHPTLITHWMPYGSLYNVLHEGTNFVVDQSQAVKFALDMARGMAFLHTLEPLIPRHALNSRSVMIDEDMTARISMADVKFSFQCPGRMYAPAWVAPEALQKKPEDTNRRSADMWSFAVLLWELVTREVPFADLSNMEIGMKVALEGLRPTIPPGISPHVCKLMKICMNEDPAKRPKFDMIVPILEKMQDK
PRPK, sequence (Q96S44 whole entry): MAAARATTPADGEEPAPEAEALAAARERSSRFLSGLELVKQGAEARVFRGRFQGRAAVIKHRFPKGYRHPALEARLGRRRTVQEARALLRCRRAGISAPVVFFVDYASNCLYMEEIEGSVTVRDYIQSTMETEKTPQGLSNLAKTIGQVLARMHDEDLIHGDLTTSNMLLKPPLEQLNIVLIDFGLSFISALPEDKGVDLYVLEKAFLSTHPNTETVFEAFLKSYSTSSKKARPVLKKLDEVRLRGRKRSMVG

Cn1cc(-c2c[nH]c3ncnc(N4CCOCC4)c23)cc1C#N [Example 217, 1-methyl-4-[4-(morpholin-4-yl)-7H-pyrrolo[2,3-d]pyrimidin-5-yl]-1H-pyrrole-2-carbonitrile]
IC50 [1]: 13 nM | inhibition at 0.1 µM ([2]; ACK, 0.1 μM): -9.8% | inhibition at 1 µM ([2]; ACK, 1 μM): -19.5% | inhibition at 0.1 µM ([3]; AMPKa1, 0.1 μM): 27.2% | inhibition at 1 µM ([3]; AMPKa1, 1 μM): 48.8% | inhibition at 0.1 µM ([4]; BRAF, 0.1 μM): -8.4% | inhibition at 1 µM ([4]; BRAF, 1 μM): -10.4% | inhibition at 0.1 µM ([5]; CaMK1d, 0.1 μM): 11.7% | inhibition at 1 µM ([5]; CaMK1d, 1 μM): 3.1% | inhibition at 0.1 µM ([6]; CaMK2g, 0.1 μM): 4.3% | inhibition at 1 µM ([6]; CaMK2g, 1 μM): 18.7% | percent inhibition ([7]; 0.1 μM): −5.6% | percent inhibition ([7]; 1 μM): −5.2% | inhibition at 0.1 µM ([8]; CDK2, 0.1 μM): 3.6% | inhibition at 1 µM ([8]; CDK2, 1 μM): 16.5% | inhibition at 0.1 µM ([9]; FES, 0.1 μM): 8.4% | inhibition at 1 µM ([9]; FES, 1 μM): 6.2% | inhibition at 0.1 µM ([10]; GCK, 0.1 μM): -5.2% | inhibition at 1 µM ([10]; GCK, 1 μM): 27.2% | inhibition at 0.1 µM ([11]; GCN2, 0.1 μM): -7.7% | inhibition at 1 µM ([11]; GCN2, 1 μM): -3.1% | inhibition at 0.1 µM ([12]; GSK3A, 0.1 μM): 0.6% | inhibition at 1 µM ([12]; GSK3A, 1 μM): 8.9% | inhibition at 0.1 µM ([13]; GSK3B, 0.1 μM): -4.3% | inhibition at 1 µM ([13]; GSK3B, 1 μM): 12.4% | inhibition at 0.1 µM ([14]; ILK, 0.1 μM): -6.3% | inhibition at 1 µM ([14]; ILK, 1 μM): -3.8% | inhibition at 0.1 µM ([15]; IRAK3, 0.1 μM): 16% | inhibition at 1 µM ([15]; IRAK3, 1 μM): 72.4% | inhibition at 0.1 µM ([16]; JAK2 domain2, 0.1 μM): 4.8% | inhibition at 1 µM ([16]; JAK2 domain2, 1 μM): -6.4% | inhibition at 0.1 µM ([17]; LOK, 0.1 μM): -6.4% | inhibition at 1 µM ([17]; LOK, 1 μM): 56.1% | inhibition at 0.1 µM ([18]; MAP3K4, 0.1 μM): -35.5% | inhibition at 1 µM ([18]; MAP3K4, 1 μM): -27.4% | inhibition at 0.1 µM ([19]; MLKL, 0.1 μM): 2.5% | inhibition at 1 µM ([19]; MLKL, 1 μM): -3.3% | inhibition at 0.1 µM ([20]; MST3, 0.1 μM): 6.7% | inhibition at 1 µM ([20]; MST3, 1 μM): 10.9% | inhibition at 0.1 µM ([21]; NDR2, 0.1 μM): 28.9% | inhibition at 1 µM ([21]; NDR2, 1 μM): -6% | inhibition at 0.1 µM ([22]; NEK9, 0.1 μM): -11% | inhibition at 1 µM ([22]; NEK9, 1 μM): 1.5% | inhibition at 0.1 µM ([23]; PI4KB, 0.1 μM): 9.9% | inhibition at 1 µM ([23]; PI4KB, 1 μM): -0.5% | inhibition at 0.1 µM ([24]; PIK3CB, 0.1 μM): -5.3% | inhibition at 1 µM ([24]; PIK3CB, 1 μM): -29.7% | inhibition at 0.1 µM ([25]; PIK3CG, 0.1 μM): -3.4% | inhibition at 1 µM ([25]; PIK3CG, 1 μM): -22% | inhibition at 0.1 µM [26]: 2.6% | inhibition at 1 µM [26]: 12.5% | inhibition at 0.1 µM ([27]; PYK2, 0.1 μM): -1% | inhibition at 1 µM ([27]; PYK2, 1 μM): 8.4% | percent inhibition ([28]; 0.1 μM): 5.0% | percent inhibition ([28]; 1 μM): 48.5% | inhibition at 0.1 µM ([29]; RSKL1 domain1, 0.1 μM): -15.9% | inhibition at 1 µM ([29]; RSKL1 domain1, 1 μM): -30.6% | inhibition at 0.1 µM ([30]; SGK3, 0.1 μM): 8.5% | inhibition at 1 µM ([30]; SGK3, 1 μM): 16.9% | percent inhibition ([31]; 0.1 μM): −9.7% | percent inhibition ([31]; 1 μM): −16.5% | percent inhibition ([32]; 0.1 μM): −1.2% | percent inhibition ([32]; 1 μM): 7.7%

N#Cc1cccc(-c2c[nH]c3ncnc(N4CCOCC4)c23)c1 [Example 4, 3-[4-(Morpholin-4-yl)-7H-pyrrolo[2,3-d]pyrimidin-5-yl]benzonitrile]
IC50 [1]: 11 nM | inhibition at 0.1 µM [2]: 0.8% | inhibition at 1 µM [2]: 7.7% | inhibition at 0.1 µM [3]: -2.1% | inhibition at 1 µM [3]: 16.4% | inhibition at 0.1 µM [4]: 1.2% | inhibition at 1 µM [4]: -1.2% | inhibition at 0.1 µM [5]: -12.1% | inhibition at 1 µM [5]: 0.9% | inhibition at 0.1 µM [6]: -13.6% | inhibition at 1 µM [6]: 2.9% | percent inhibition ([7]; 0.1 μM): 5% | percent inhibition ([7]; 1 μM): 36% | inhibition at 0.1 µM [8]: 11% | inhibition at 1 µM [8]: 9.2% | inhibition at 0.1 µM [9]: -9.2% | inhibition at 1 µM [9]: 6.9% | inhibition at 0.1 µM [10]: 3.6% | inhibition at 1 µM [10]: 31.2% | inhibition at 0.1 µM [11]: -13.6% | inhibition at 1 µM [11]: 0.6% | inhibition at 0.1 µM [12]: -0.9% | inhibition at 1 µM [12]: 7.2% | inhibition at 0.1 µM [13]: -3.7% | inhibition at 1 µM [13]: 6.7% | inhibition at 0.1 µM [14]: -8.9% | inhibition at 1 µM [14]: -31.6% | inhibition at 0.1 µM [15]: 29.8% | inhibition at 1 µM [15]: 33.7% | inhibition at 0.1 µM [16]: 0.7% | inhibition at 1 µM [16]: 16.4% | inhibition at 0.1 µM [17]: 11.9% | inhibition at 1 µM [17]: 53.6% | inhibition at 0.1 µM [18]: 9.7% | inhibition at 1 µM [18]: 29.8% | inhibition at 0.1 µM [19]: -10.1% | inhibition at 1 µM [19]: 14.5% | inhibition at 0.1 µM [20]: 0.1% | inhibition at 1 µM [20]: 46.2% | inhibition at 0.1 µM [21]: -18.7% | inhibition at 1 µM [21]: 22.1% | inhibition at 0.1 µM [22]: -7.1% | inhibition at 1 µM [22]: 1% | inhibition at 0.1 µM [23]: -7.4% | inhibition at 1 µM [23]: 4.9% | inhibition at 0.1 µM [24]: 0.5% | inhibition at 1 µM [24]: -2.5% | inhibition at 0.1 µM [25]: -20.4% | inhibition at 1 µM [25]: -5.6% | inhibition at 0.1 µM [26]: 3% | inhibition at 1 µM [26]: -3.7% | inhibition at 0.1 µM [27]: -3.9% | inhibition at 1 µM [27]: 2.5% | percent inhibition ([28]; 0.1 μM): −0.4% | percent inhibition ([28]; 1 μM): 13.4% | inhibition at 0.1 µM [29]: 1.1% | inhibition at 1 µM [29]: -1.8% | inhibition at 0.1 µM [30]: -5.5% | inhibition at 1 µM [30]: -0.8% | percent inhibition ([31]; 0.1 μM): −6.5% | percent inhibition ([31]; 1 μM): 5.9% | percent inhibition ([32]; 0.1 μM): −3.2% | percent inhibition ([32]; 1 μM): 14.8%
